The assay deals with Leucine--tRNA ligase (Staphylococcus aureus). As to the kind of experiment: Compound was evaluated for its inhibitory activity against Leucyl-tRNA synthetase from staphylococcus aureus WCUH29.

The structures appear in SMILES notation.

For the molecule `CC[C@H](C)[C@H](N)C(=O)NS(=O)(=O)CC(=O)N[C@]1(C(=O)OC)[C@@H]2CN(C)C=C(C(N)=O)[C@@H]2C[C@@H]1O` [(4aR,6S,7R,7aS)-7-[2-((2S,3S)-2-Amino-3-methyl-pentanoylsulfamoyl)-acetylamino]-4-carbamoyl-6-hydroxy-2-methyl-2,4a,5,6,7,7a-hexahydro-1H-[2]pyrindine-7-carboxylic acid methyl ester], the IC50 (in general, the concentration at which inhibition is half-maximal) amounted to 186 µM.

The values above are taken from BindingDB's records for doi:10.1016/s0960-894x(00)00456-x (Australian National University, 2001).
